Source: paper PMC4805251, “Novel Antimicrobial Peptides EeCentrocins 1, 2 and EeStrongylocin 2 from the Edible Sea Urchin Echinus esculentus Have 6-Br-Trp Post-Translational Modifications” (PLoS ONE, 2016)
Like-named read-outs stand apart in the source and are kept apart here. Bridge positions count the residues as written; N and C are the ends. Square brackets hold non-standard residues; d marks the D form. Ends that are not written are not given here. I, II: the chains in the order shown. Trp(6-Br) = N[C@@H](Cc1c[nH]c2cc(Br)ccc12)C(=O)O

Columns and labels:
Assay type in all cases: cell-based
[1] = test system: Pseudomonas aeruginosa #1 (ATCC 27853)
From the text: (§1) Organic phase extract, SPE eluates and HPLC-fractions were screened for antibacterial activity against two strains of Gram-positive and two strains of Gram-negative bacteria; Corynebacterium glutamicum (ATCC 13032), Staphylococcus aureus (ATCC 9144), Pseudomonas aeruginosa #1 (ATCC 27853) and Escherichia coli #1 (ATCC 25922). For extended antimicrobial bioactivity screening, the following bacterial strains were used, three strains of Gram-positive bacteria; S. epidermidis #1 (5179-R1) kindly provided by Holger Rohde, S. epidermidis #2, RP62A (ATCC 35984) and Bacillus subtilis (ATCC 23857) in addition to the Gram-negative P. aeruginosa #2, PA 01 (ATCC 15692, DSM 19880) and E. coli #2, NR 698 (MC4100/ptD4213).
(§2) Cultures stored at -80°C were smeared onto agar plates and cultured for 24 h at 35°C. One colony of each bacterial strain was transferred to 5 ml liquid Müller-Hinton (MH, Difco, Lawrence, KS, USA) medium in a glass tube and left shaking at room temperature overnight at 600 rpm. The cultures of actively growing bacteria (20 μl) were further inoculated in 5 ml MH medium and left shaking for 2 h at room temperature. The antibacterial assays were performed as previously described by. Briefly, the bacterial cultures were diluted with medium to 1.3–1.5 × 10^4 bacteria/ml final concentrations and an aliquot of 50 μl was added to each well in 96-well Nunclon^TM microtiter plates (Nagle Nunc Int., Denmark) preloaded with 50 μl test sample solutions, i.e. extracts, eluates or peptides.
(§3) The test plates were incubated for 24 h at 35°C with optical density (OD595) recorded every hour using an Envision 2103 multilabel reader, controlled by the Wallac Envision manager (PerkinElmer, CT, USA). Antibacterial activity was defined as a sample showing >90% inhibition (as measured by optical density) compared to the negative (growth) controls, consisting of bacteria and water. Oxytetracycline (20 μM) served as a positive (inhibition) control. The minimum inhibitory concentration (MIC) was defined as the lowest concentration of a sample displaying >90% inhibition.
(§4) ACN-phases and SPE eluates were tested with two-fold serial dilutions ranging from 5.0 to 0.005 mg/ml (5.0, 2.5, 1.25, 0.63, 0.31, 0.16, 0.08, 0.04, 0.02, 0.01, 0.005 mg/ml) whereas HPLC-fractions were tested undiluted for antibacterial activity. Pure, native peptides and synthetic peptides (described in section 2.11) were tested for antimicrobial activity in concentrations ranging from 100 to 0.1 μM in two-fold serial dilutions (100, 50, 25, 12.5, 6.25, 3.13, 1.56, 0.78, 0.39, 0.20, 0.10 μM). Antimicrobial assays involving natural peptides (i.e. fractionated natural material) were run only once due to limited quantities, whereas all other assays were run in triplicates.

[2] = test system: Escherichia coli #1 (ATCC 25922)
From the text: as §1, §2, §3, §4

[3] = test system: Staphylococcus aureus (ATCC 9144)
From the text: as §1, §2, §3, §4

[4] = test system: Corynebacterium glutamicum (ATCC 13032)
From the text: as §1, §2, §3, §4

[5] = test system: Candida albicans (ATCC 10231); conditions: ATCC 10231, 24 h
Method: (§5) The synthetic peptides (see section 2.11) were also screened for antifungal activity against Candida albicans (ATCC 10231), Saccharomyces cerevisiae, Rhodotorula sp., Aureobasidium pullulans and Cladosporium sp. The antifungal assay was performed as described previously. Briefly, fungal spores were dissolved in potato dextrose broth (Difco, Lawrence, KS, USA) to a concentration of 4 × 10^5 spores/ml. The spores (50 μl) were inoculated on 96-well Nunclon^TM microtiter plates containing the synthetic peptides (50 μl) dissolved in MQ-H2O. […] MIC was defined as the lowest concentration of peptide giving no visible fungal growth. The negative (growth) control contained medium and fungal solution.
as §4

Saccharomyces cerevisiae = conditions: 24 h
Method: as §5, §4

Rhodotorula sp. = conditions: potato dextrose broth, 24 h at room temperature, visual, no visible fungal growth; value of Table 2; triplicates
Method: as §5, §4

Aureobasidium pullulans = conditions: 24 h
Method: as §5, §4

Cladosporium sp. = conditions: 24 h
Method: as §5, §4

[6] = test system: S. epidermidis #2, RP62A (ATCC 35984); conditions: ATCC 35984, 24 h
From the text: as §1, §2, §3, §4

[7] = test system: E. coli #2, NR 698 (MC4100/ptD4213); conditions: MH medium, 24 h at 35°C, OD595, >90% inhibition; value of Table 2; triplicates
From the text: as §1, §2, §3, §4

[8] = test system: P. aeruginosa #2, PA 01 (ATCC 15692, DSM 19880); conditions: ATCC 15692, 24 h
From the text: as §1, §2, §3, §4

[9] = test system: S. epidermidis #1 (5179-R1); conditions: #1 (5179-R1, 24 h)
From the text: as §1, §2, §3, §4

[10] = test system: Bacillus subtilis (ATCC 23857); conditions: ATCC 23857, 24 h
From the text: as §1, §2, §3, §4

[11] = MH medium, 24 h at 35°C, OD595, >90% inhibition, value of Table 2, native peptides run once, synthetic in triplicates
[12] = MH medium, 24 h at 35°C, OD595, lowest concentration with >90% inhibition, value of Table 2, native peptides run once, synthetic in triplicates

Row | Molecule | MIC P. aeruginosa #1 ([1]; ATCC 27853, 24 h) [µM] | MIC E. coli #1 ([2]; ATCC 25922, 24 h) [µM] | MIC S. aureus ([3]; ATCC 9144, 24 h) [µM] | MIC C. glutamicum ([4]; ATCC 13032, 24 h) [µM] | MIC C. albicans [5] [µM] | MIC S. cerevisiae (Saccharomyces cerevisiae) [µM] | MIC Rhodotorula sp. (Rhodotorula sp.) [µM] | MIC A. pullulans (Aureobasidium pullulans) [µM] | MIC Cladosporium sp. (Cladosporium sp.) [µM] | MIC S. epidermidis #2 [6] [µM] | MIC E. coli #2 [7] [µM] | MIC P. aeruginosa #2 [8] [µM] | MIC S. epidermidis #1 [9] [µM] | MIC B. subtilis [10] [µM] | MIC P. aeruginosa #1 [1, 11] [µM] | MIC E. coli #1 [2, 11] [µM] | MIC S. aureus [3, 12] [µM] | MIC C. glutamicum [4, 12] [µM]
1 | I: G[Trp(6-Br)][Trp(6-Br)]RRTVDKVRNAGRKVAGFASKACGALGH-OH / II: DIGKYCGYAHALN-NH2 (disulfide I:25-II:6) [EeCentrocin 1] | 0.78 | 0.1 | 0.78 | 0.78 | – | – | – | – | – | – | – | – | – | – | – | – | – | –
2 | CC[C@H](C)[C@H](NC(=O)[C@@H](N)CC(=O)O)C(=O)NCC(=O)N[C@@H](CCCCN)C(=O)N[C@@H](Cc1ccc(O)cc1)C(=O)N[C@@H](CS)C(=O)NCC(=O)N[C@@H](Cc1ccc(O)cc1)C(=O)N[C@@H](C)C(=O)N[C@@H](Cc1c[nH]cn1)C(=O)N[C@@H](C)C(=O)N[C@@H](CC(C)C)C(=O)N[C@@H](CC(N)=O)C(=O)O (stereo in doubt) [EeCentrocin 1 LC] | >100 | >100 | >100 | >100 | >100 | >100 | >100 | >100 | >100 | >100 | >100 | >100 | >100 | >100 | – | – | – | –
3 | XNPFKKIAHRXCYPKNE (bicyclic or more) [EeStrongylocin 2, cysteine-rich antimicrobial peptide from E. esculentus with 3 disulphide bonds and a 6-Br-Trp] | – | – | – | – | – | – | – | – | – | – | – | – | – | – | 1.56 | 0.78 | 3.13 | 1.56
